PubChem BioAssay AID2060910 (Molecular Pharmacology Branch, DTP, NCI, 2025)

System: 242566-281-R-J2-PDC complex spheroid viability
Experiment: Anticancer human tumor 242566-281-R-J2-PDC patient-derived pancreatic carcinoma cell line growth inhibition [RAS]
Settings: for IC50: curve of first compound; for viability, T/C: stronger effect = lower value
Procedure, shortened: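 Multi-cell-type spheroids: tumor cells plus HUVEC endothelial cells and mesenchymal stem cells. RAS-pathway inhibitors were combined with targeted agents, each dosed in half-log steps down from clinical Cmax, or from 10 microM when Cmax was unknown.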

[1] = second compound 0.000949 µM, first compound 0.0316 µM
[2] = second compound 0.000949 µM, first compound 0.1 µM
[3] = second compound 0.000949 µM, first compound 0.316 µM
[4] = second compound 0.000949 µM, first compound 1 µM
[5] = second compound 0.000949 µM, first compound 3.16 µM
[6] = second compound 0.000949 µM, first compound 10 µM
[7] = second compound 0.003 µM, first compound 0.0316 µM
[8] = second compound 0.003 µM, first compound 0.1 µM
[9] = second compound 0.003 µM, first compound 0.316 µM
[10] = second compound 0.003 µM, first compound 1 µM
[11] = second compound 0.003 µM, first compound 3.16 µM
[12] = second compound 0.003 µM, first compound 10 µM
[13] = second compound 0.00949 µM, first compound 0.0316 µM
[14] = second compound 0.00949 µM, first compound 0.1 µM
[15] = second compound 0.00949 µM, first compound 0.316 µM
[16] = second compound 0.00949 µM, first compound 1 µM
[17] = second compound 0.00949 µM, first compound 3.16 µM
[18] = second compound 0.00949 µM, first compound 10 µM
[19] = second compound 0.03 µM, first compound 0.0316 µM
[20] = second compound 0.03 µM, first compound 0.1 µM
[21] = second compound 0.03 µM, first compound 0.316 µM
[22] = second compound 0.03 µM, first compound 1 µM
[23] = second compound 0.03 µM, first compound 3.16 µM
[24] = second compound 0.03 µM, first compound 10 µM
[25] = second compound 0.0949 µM, first compound 0.0316 µM
[26] = second compound 0.0949 µM, first compound 0.1 µM
[27] = second compound 0.0949 µM, first compound 0.316 µM
[28] = second compound 0.0949 µM, first compound 1 µM
[29] = second compound 0.0949 µM, first compound 3.16 µM
[30] = second compound 0.0949 µM, first compound 10 µM
[31] = second compound 0.3 µM, first compound 0.0316 µM
[32] = second compound 0.3 µM, first compound 0.1 µM
[33] = second compound 0.3 µM, first compound 0.316 µM
[34] = second compound 0.3 µM, first compound 1 µM
[35] = second compound 0.3 µM, first compound 3.16 µM
[36] = second compound 0.3 µM, first compound 10 µM
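Note: spheroids exposed to compound for 7 days before readout.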
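Throughout, for viability, T/C: 100% = DMSO vehicle control wells.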

Q: What does the source list for `CC(C)NCC(C(=O)N1CCN(c2ncnc3c2C(C)CC3O)CC1)c1ccc(Cl)cc1` (centres undefined) + CCn1c(-c2cccnc2C(C)OC)c2c3cc(ccc31)N1CCOC(CC(NC(=O)C(C(C)C)N(C)C(=O)C3(F)CCN(C(=O)C#CC(C)(C)N(C)C)CC3)C(=O)N3CCCC(N3)C(=O)OCC(C)(C)C2)C1?
A: IC50 (second compound 0.000949 µM): > 10 µM; IC50 (second compound 0.003 µM): > 10 µM; IC50 (second compound 0.00949 µM): > 10 µM; IC50 (second compound 0.03 µM): > 10 µM; IC50 (second compound 0.0949 µM): > 10 µM; IC50 (second compound 0.3 µM): > 10 µM; viability, T/C [1]: 92%; viability, T/C [2]: 98.4%; viability, T/C [3]: 84.9%; viability, T/C [4]: 92.2%; viability, T/C [5]: 96.8%; viability, T/C [6]: 56.7%; viability, T/C [7]: 111%; viability, T/C [8]: 73.6%; viability, T/C [9]: 95.2%; viability, T/C [10]: 81.6%; viability, T/C [11]: 84.9%; viability, T/C [12]: 55.5%; viability, T/C [13]: 109%; viability, T/C [14]: 70.8%; viability, T/C [15]: 97.5%; viability, T/C [16]: 79.2%; viability, T/C [17]: 74.1%; viability, T/C [18]: 56.4%; viability, T/C [19]: 96%; viability, T/C [20]: 91.2%; viability, T/C [21]: 93.6%; viability, T/C [22]: 79.2%; viability, T/C [23]: 69.8%; viability, T/C [24]: 72.7%; viability, T/C [25]: 88.9%; viability, T/C [26]: 87.5%; viability, T/C [27]: 104%; viability, T/C [28]: 97.7%; viability, T/C [29]: 65.9%; viability, T/C [30]: 59.9%; viability, T/C [31]: 85.8%; viability, T/C [32]: 88.7%; viability, T/C [33]: 85.4%; viability, T/C [34]: 74%; viability, T/C [35]: 62.3%; viability, T/C [36]: 52.3%

Q: With `CC(Nc1ccc2c(c1)OCCn1cc(N3C(=O)OCC3C(F)F)nc1-2)C(N)=O` (centres undefined) + CCn1c(-c2cccnc2C(C)OC)c2c3cc(ccc31)N1CCOC(CC(NC(=O)C(C(C)C)N(C)C(=O)C3(F)CCN(C(=O)C#CC(C)(C)N(C)C)CC3)C(=O)N3CCCC(N3)C(=O)OCC(C)(C)C2)C1 as the compound, how does the IC50 (second compound 0.000949 µM) read?
A: 0.918 µM

Q: What about the IC50 (second compound 0.003 µM) of the same compound?
A: 1.11 µM

Q: What about the IC50 (second compound 0.00949 µM) of the same compound?
A: 1.05 µM

Q: And the IC50 (second compound 0.03 µM)?
A: 0.963 µM

Q: What about the IC50 (second compound 0.0949 µM) of the same compound?
A: 0.872 µM

Q: And the IC50 (second compound 0.3 µM)?
A: 0.329 µM

Q: What about the viability, T/C [1] of the same compound?
A: 108%

Q: What about the viability, T/C [2] of the same compound?
A: 81.6%

Q: What about the viability, T/C [3] of the same compound?
A: 54.7%

Q: What about the viability, T/C [4] of the same compound?
A: 55%

Q: And the viability, T/C [5]?
A: 36.5%

Q: What about the viability, T/C [6] of the same compound?
A: 17.4%

Q: And the viability, T/C [7]?
A: 91.4%

Q: What about the viability, T/C [8] of the same compound?
A: 79.4%

Q: What about the viability, T/C [9] of the same compound?
A: 64.8%

Q: What about the viability, T/C [10] of the same compound?
A: 51.2%

Q: And the viability, T/C [11]?
A: 37.7%

Q: What about the viability, T/C [12] of the same compound?
A: 18.1%

Q: What about the viability, T/C [13] of the same compound?
A: 101%

Q: And the viability, T/C [14]?
A: 79.8%

Q: And the viability, T/C [15]?
A: 70%

Q: And the viability, T/C [16]?
A: 54%

Q: And the viability, T/C [17]?
A: 29.9%

Q: And the viability, T/C [18]?
A: 20.8%

Q: And the viability, T/C [19]?
A: 85.4%

Q: And the viability, T/C [20]?
A: 83%

Q: What about the viability, T/C [21] of the same compound?
A: 68.8%

Q: And the viability, T/C [22]?
A: 52.3%

Q: What about the viability, T/C [23] of the same compound?
A: 26.3%

Q: What about the viability, T/C [24] of the same compound?
A: 22.9%

Q: What about the viability, T/C [25] of the same compound?
A: 88.8%

Q: What about the viability, T/C [26] of the same compound?
A: 77.9%

Q: And the viability, T/C [27]?
A: 69.9%

Q: And the viability, T/C [28]?
A: 48.6%

Q: What about the viability, T/C [29] of the same compound?
A: 25.5%

Q: What about the viability, T/C [30] of the same compound?
A: 17.7%

Q: What about the viability, T/C [31] of the same compound?
A: 77.5%

Q: And the viability, T/C [32]?
A: 67.5%

Q: What about the viability, T/C [33] of the same compound?
A: 50.4%

Q: What about the viability, T/C [34] of the same compound?
A: 33.1%

Q: What about the viability, T/C [35] of the same compound?
A: 22.7%

Q: And the viability, T/C [36]?
A: 16.2%
